1 molecule from ChEMBL document CHEMBL3734669, “Δ(5)-Cholenoyl-amino acids as selective and orally available antagonists of the Eph-ephrin system” (Eur J Med Chem, 2015) can be followed below.

Activity calls are given as the source filed them. The calls are words filed in the database; no cut-off is given here.

Data set [1] can be described thus: Cytotoxicity against human PC3 cells at 10 to 30 uM after 2 hrs by LDH release assay. Format: cell-based. Conditions: pc-3, 2 h.
Data set [2] concerns the target Ephrin type-A receptor 5 (Homo sapiens, UniProt P54756). Put plainly: Displacement of biotinylated ephrin-A1-Fc from EphA5 (unknown origin) preincubated for 1 hr followed by biotinylated-ephrin-A1-Fc addition measured after 4 hrs by ELISA.
The target of data set [3] is T1, Ephrin type-A receptor 8 (Homo sapiens) (UniProt P29322).
T1 sequence (whole entry): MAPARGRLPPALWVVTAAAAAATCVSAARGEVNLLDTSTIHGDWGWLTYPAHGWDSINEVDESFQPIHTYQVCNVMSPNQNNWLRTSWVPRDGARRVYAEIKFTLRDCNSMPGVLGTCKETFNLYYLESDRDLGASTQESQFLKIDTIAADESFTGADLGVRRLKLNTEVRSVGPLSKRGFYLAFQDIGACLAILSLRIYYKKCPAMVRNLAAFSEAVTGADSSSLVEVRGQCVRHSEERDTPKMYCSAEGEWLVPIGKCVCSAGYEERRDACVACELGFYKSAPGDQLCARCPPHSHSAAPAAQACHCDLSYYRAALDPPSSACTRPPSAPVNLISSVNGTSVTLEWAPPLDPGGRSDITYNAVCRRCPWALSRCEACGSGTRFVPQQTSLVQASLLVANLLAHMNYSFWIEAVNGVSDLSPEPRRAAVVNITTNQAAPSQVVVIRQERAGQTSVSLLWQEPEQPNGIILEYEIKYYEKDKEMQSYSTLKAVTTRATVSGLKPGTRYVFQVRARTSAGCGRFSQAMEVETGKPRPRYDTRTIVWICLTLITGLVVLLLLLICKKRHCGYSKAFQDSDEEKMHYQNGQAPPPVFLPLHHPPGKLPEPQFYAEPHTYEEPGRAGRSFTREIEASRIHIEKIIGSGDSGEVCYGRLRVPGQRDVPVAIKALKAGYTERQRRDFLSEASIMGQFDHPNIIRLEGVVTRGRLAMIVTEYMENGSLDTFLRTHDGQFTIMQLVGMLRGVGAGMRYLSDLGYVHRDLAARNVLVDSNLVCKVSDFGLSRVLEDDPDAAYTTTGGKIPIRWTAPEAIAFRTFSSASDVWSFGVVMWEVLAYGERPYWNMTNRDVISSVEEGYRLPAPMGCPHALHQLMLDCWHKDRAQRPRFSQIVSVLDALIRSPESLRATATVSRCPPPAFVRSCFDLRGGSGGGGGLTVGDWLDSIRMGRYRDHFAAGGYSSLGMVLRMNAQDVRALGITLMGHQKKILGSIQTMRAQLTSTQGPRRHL
Put plainly: (§1) Displacement of biotinylated ephrin-A1-Fc from EphA8 (unknown origin) preincubated for 1 hr followed by biotinylated-ephrin-A1-Fc addition measured after 4 hrs by ELISA.

Data set [4] addresses T2, Ephrin type-A receptor 8 (Homo sapiens, UniProt P29322).
T2 sequence (P29322 whole entry): T1 sequence (whole entry)
Described as §1.

Data set [5] is described as follows: Tmax in mouse at 30 mg/kg, po administered as single dose by HPLC-MS analysis. Format: ADME, organism-based. The conditions noted are these: in vivo.
The nature of data set [6]: n-octanol-water distribution coefficient, log D of the compound at pH 7.4 after 4 hrs by shake-flask method. The class given is physicochemical.
Data set [7] has as its target T3, G-protein coupled bile acid receptor 1 (Homo sapiens) (UniProt Q8TDU6).
T3 sequence (whole entry): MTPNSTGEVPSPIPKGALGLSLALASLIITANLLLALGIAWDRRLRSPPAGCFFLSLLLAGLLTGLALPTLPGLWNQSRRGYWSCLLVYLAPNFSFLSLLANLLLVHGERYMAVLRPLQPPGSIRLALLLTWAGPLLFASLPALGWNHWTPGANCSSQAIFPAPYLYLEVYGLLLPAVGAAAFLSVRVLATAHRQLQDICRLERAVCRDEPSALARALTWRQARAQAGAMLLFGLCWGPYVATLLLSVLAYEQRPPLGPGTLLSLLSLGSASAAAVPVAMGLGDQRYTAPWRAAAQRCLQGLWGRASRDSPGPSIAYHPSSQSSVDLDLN
The experiment in a line: Agonist activity at TGR5 (unknown origin) assessed as cAMP level up to 30 uM. Format: functional.

Ephrin type-A receptor 5, sequence (P54756 whole entry): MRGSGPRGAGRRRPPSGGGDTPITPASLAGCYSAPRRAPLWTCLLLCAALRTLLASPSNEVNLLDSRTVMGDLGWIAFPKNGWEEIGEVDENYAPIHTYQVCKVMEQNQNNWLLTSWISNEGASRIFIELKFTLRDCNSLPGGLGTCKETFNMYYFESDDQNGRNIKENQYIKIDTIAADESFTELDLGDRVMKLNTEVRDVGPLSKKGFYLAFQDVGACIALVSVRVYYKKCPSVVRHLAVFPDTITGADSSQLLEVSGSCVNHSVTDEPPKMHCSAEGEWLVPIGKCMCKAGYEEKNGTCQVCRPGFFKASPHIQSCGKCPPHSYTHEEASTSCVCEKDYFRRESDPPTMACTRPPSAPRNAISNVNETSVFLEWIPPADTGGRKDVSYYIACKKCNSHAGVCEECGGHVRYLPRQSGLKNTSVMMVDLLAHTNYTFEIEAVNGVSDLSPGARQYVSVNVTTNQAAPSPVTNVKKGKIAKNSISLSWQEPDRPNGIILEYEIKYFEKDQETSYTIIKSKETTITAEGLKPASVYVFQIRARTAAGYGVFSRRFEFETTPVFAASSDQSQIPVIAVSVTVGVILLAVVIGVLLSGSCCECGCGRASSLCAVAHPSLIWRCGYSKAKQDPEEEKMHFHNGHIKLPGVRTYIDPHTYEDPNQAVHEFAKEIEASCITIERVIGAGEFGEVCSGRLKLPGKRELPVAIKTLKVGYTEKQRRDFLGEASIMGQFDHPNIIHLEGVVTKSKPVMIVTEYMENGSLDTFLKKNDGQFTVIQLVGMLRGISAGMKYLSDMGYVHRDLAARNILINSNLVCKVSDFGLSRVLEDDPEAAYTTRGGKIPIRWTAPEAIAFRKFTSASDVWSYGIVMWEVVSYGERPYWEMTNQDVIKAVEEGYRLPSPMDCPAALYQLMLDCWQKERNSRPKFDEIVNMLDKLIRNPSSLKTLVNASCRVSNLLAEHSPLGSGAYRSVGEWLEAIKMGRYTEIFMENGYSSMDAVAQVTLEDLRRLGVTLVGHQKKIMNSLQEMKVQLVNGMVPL

Turning to `C[C@H](CCC(=O)N[C@@H](Cc1c[nH]c2ccccc12)C(=O)O)[C@H]1CC[C@H]2[C@@H]3CC=C4C[C@@H](O)CC[C@]4(C)[C@H]3CC[C@]12C`, the Activity result in data set [1] is on record as “Non-toxic”. For the same molecule, the IC50 was 2600 nM in data set [2] and 3100 nM in data set [4]. In addition, the inhibition result in data set [2] and in data set [3] was “Dose-dependent effect” in each case. The Tmax in data set [5] was 30 min. Besides, the logD at 4 h in data set [6] stood at 4.01. Also, the result in data set [7] was inactive.
